pIC50: −log10 of the molar value. One block for each compound: values may come before it.
Experiments:
[1] = test system: p-ERK in AGS cells (K-Ras G12D); experiment: Phospho-ERK1/2(THR202/TYR204) HTRF assay, AGS; type: cell-based; conditions: Homo sapiens, 2 h, 2 hours incubation
SW620 cells (K-Ras G12V) = experiment: 2D cell growth inhibition assay, SW620; type: cell-based; conditions: Homo sapiens, SW-620, 144 h, 6 days, absolute IC50
K-Ras G12V [2] = target: T1, K-Ras G12V (Homo sapiens, UniProt P01116, G12V); experiment: biochemical
T1 sequence (P01116 1-169 isoform P01116-2 G12V): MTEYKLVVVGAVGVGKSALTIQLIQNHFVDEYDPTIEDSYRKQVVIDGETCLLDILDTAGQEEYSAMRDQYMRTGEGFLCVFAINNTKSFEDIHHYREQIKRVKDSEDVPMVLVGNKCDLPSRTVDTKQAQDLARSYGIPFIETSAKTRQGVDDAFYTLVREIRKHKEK

[3] = test system: AsPC-1 cells (K-Ras G12D); experiment: 2D cell growth inhibition assay, AsPC-1; type: cell-based; conditions: Homo sapiens, ASPC1, 144 h, AsPC-1, K-Ras G12D, 6 days, absolute IC50
K-Ras G12V [4] = target: T1, K-Ras G12V; experiment: SOS1 catalyzed nucleotide exchange assay (GDP form K-Ras), K-Ras G12V; conditions: read-out: K-Ras G12V GDP Biochemical Activity (IC50)
AGS cells (K-Ras G12D) = experiment: 2D cell growth inhibition assay, AGS; type: cell-based; conditions: Homo sapiens, 144 h, 6 days, absolute IC50
[5] = test system: p-ERK in SW620 cells (K-Ras G12V); experiment: Phospho-ERK1/2(THR202/TYR204) HTRF assay, SW620; type: cell-based; conditions: Homo sapiens, SW-620, 2 h, 2 hours incubation

Compound: C#Cc1c(F)ccc2cc(O)cc(-c3nc(C(F)F)c4c(N5CCCOCC5)nc(OC[C@@]56CCCN5C[C@H](F)C6)nc4c3F)c12 [Compound 34, 4-(5-(difluoromethyl)-8-fluoro-2-(((2R,7aS)-2-fluorotetrahydro-1H-pyrrolizin-7a(5H)-yl)methoxy)-4-(1,4-oxazepan-4-yl)pyrido[4,3-d]pyrimidin-7-yl)-5-ethynyl-6-fluoronaphthalen-2-ol trifluoroacetic acid]
- IC50 [1]: 19.4 nM
- IC50 (SW620 cells (K-Ras G12V)): 205 nM
- pIC50 (K-Ras G12V [2]): 6.32
- IC50 [3]: 323 nM
- pIC50 (K-Ras G12V [4]): 8.67
- IC50 (AGS cells (K-Ras G12D)): 75.4 nM
- IC50 [5]: 40 nM

Compound: C#Cc1c(F)ccc2cc(O)cc(-c3nc(CO)c4c(N5CCCOCC5)nc(OC[C@@]56CCCN5C[C@H](F)C6)nc4c3F)c12 [Compound 36, 5-ethynyl-6-fluoro-4-(8-fluoro-2-(((2R,7aS)-2-fluorotetrahydro-1H-pyrrolizin-7a(5H)-yl)methoxy)-5-(hydroxymethyl)-4-(1,4-oxazepan-4-yl)pyrido[4,3-d]pyrimidin-7-yl)naphthalen-2-ol trifluoroacetic acid]
- IC50 [1]: 12.4 nM
- IC50 (SW620 cells (K-Ras G12V)): 112 nM
- pIC50 (K-Ras G12V [2]): 6.57
- IC50 [3]: 734 nM
- pIC50 (K-Ras G12V [4]): 8.10
- IC50 (AGS cells (K-Ras G12D)): 37.3 nM
- IC50 [5]: 48.8 nM

Compound: C#Cc1c(F)ccc2cc(O)cc(-c3nc(SC)c4c(N5CCCOCC5)nc(OC[C@@]56CCCN5C[C@H](F)C6)nc4c3F)c12 [Compound 47, 5-ethynyl-6-fluoro-4-(8-fluoro-2-(((2R,7aS)-2-fluorotetrahydro-1H-pyrrolizin-7a(5H)-yl)methoxy)-5-(methylthio)-4-(1,4-oxazepan-4-yl)pyrido[4,3-d]pyrimidin-7-yl)naphthalen-2-ol trifluoroacetic acid]
- IC50 [1]: 17.7 nM
- IC50 (SW620 cells (K-Ras G12V)): 41.6 nM
- pIC50 (K-Ras G12V [2]): 6.82
- IC50 [3]: 106 nM
- pIC50 (K-Ras G12V [4]): 8.36
- IC50 (AGS cells (K-Ras G12D)): 51.7 nM
- IC50 [5]: 40.9 nM

Compound: C#Cc1c(F)ccc2cc(O)cc(-c3nc(OC4CC4)c4c(N5CCCOCC5)nc(OC[C@@]56CCCN5C[C@H](F)C6)nc4c3F)c12 [Compound 51, 4-(5-cyclopropoxy-8-fluoro-2-(((2R,7aS)-2-fluorotetrahydro-1H-pyrrolizin-7a(5H)-yl)methoxy)-4-(1,4-oxazepan-4-yl)pyrido[4,3-d]pyrimidin-7-yl)-5-ethynyl-6-fluoronaphthalen-2-ol trifluoroacetic acid]
- IC50 [1]: 2.27 nM
- IC50 (SW620 cells (K-Ras G12V)): 10.3 nM
- pIC50 (K-Ras G12V [2]): 7.66
- IC50 [3]: 74.2 nM
- pIC50 (K-Ras G12V [4]): 8.77
- IC50 (AGS cells (K-Ras G12D)): 9.66 nM
- IC50 [5]: 8.5 nM

Compound: C#Cc1c(F)ccc2cc(O)cc(-c3nc(C4CC4)c4c(N5CCCOCC5)nc(OC[C@@]56CCCN5C[C@H](F)C6)nc4c3F)c12 [Compound 35, 4-(5-cyclopropyl-8-fluoro-2-(((2R,7aS)-2-fluorotetrahydro-1H-pyrrolizin-7a(5H)-yl)methoxy)-4-(1,4-oxazepan-4-yl)pyrido[4,3-d]pyrimidin-7-yl)-5-ethynyl-6-fluoronaphthalen-2-ol trifluoroacetic acid]
- IC50 [1]: 1.42 nM
- IC50 (SW620 cells (K-Ras G12V)): 9.2 nM
- pIC50 (K-Ras G12V [2]): 7.66
- IC50 [3]: 88.5 nM
- pIC50 (K-Ras G12V [4]): 8.24
- IC50 (AGS cells (K-Ras G12D)): 5.63 nM
- IC50 [5]: 11.9 nM

Further lines, results first:

- IC50 [1]: 517 nM
- IC50 (SW620 cells (K-Ras G12V)): 525 nM
- pIC50 (K-Ras G12V [2]): 6.81
- IC50 [3]: 2800 nM
- pIC50 (K-Ras G12V [4]): 8.60
- IC50 (AGS cells (K-Ras G12D)): 8.51 nM
- IC50 [5]: 803 nM
Compound: C#Cc1c(F)ccc2cc(O)cc(-c3nc(O)c4c(N5CCCOCC5)nc(OC[C@@]56CCCN5C[C@H](F)C6)nc4c3F)c12 [Compound 123, 7-(8-ethynyl-7-fluoro-3-hydroxynaphthalen-1-yl)-8-fluoro-2-(((2R,7aS)-2-fluoro-tetrahydro-1H-pyrrolizin-7a(5H)-yl)methoxy)-4-(1,4-oxazepan-4-yl)pyrido[4,3-d] pyrimidin-5-ol]

- IC50 [1]: 1.83 nM
- IC50 (SW620 cells (K-Ras G12V)): 22.4 nM
- pIC50 (K-Ras G12V [2]): 7.54
- IC50 [3]: 121 nM
- pIC50 (K-Ras G12V [4]): 8.78
- IC50 (AGS cells (K-Ras G12D)): 9.76 nM
- IC50 [5]: 10.4 nM
Compound: C#Cc1c(F)ccc2cc(O)cc(-c3ncc4c(N5CCCOC6CC65)nc(OC[C@@H]5CCCN5C)nc4c3F)c12 (stereo partly drawn) [Compound 113, 4-(4-(2-oxa-6-azabicyclo[5.1.0]octan-6-yl)-8-fluoro-2-(((S)-1-methylpyrrolidin-2-yl)methoxy)pyrido[4,3-d]pyrimidin-7-yl)-5-ethynyl-6-fluoronaphthalen-2-ol]

- IC50 [1]: 5.47 nM
- IC50 (SW620 cells (K-Ras G12V)): 91 nM
- pIC50 (K-Ras G12V [2]): 6.85
- IC50 [3]: 320 nM
- pIC50 (K-Ras G12V [4]): 8.52
- IC50 (AGS cells (K-Ras G12D)): 25.4 nM
- IC50 [5]: 34.8 nM
Compound: C#Cc1c(F)ccc2cc(O)cc(-c3nc(C)c4c(N5CCCOCC5)nc(OC[C@@]56CCCN5C[C@H](F)C6)nc4c3F)c12 [Compound 121, 5-ethynyl-6-fluoro-4-(8-fluoro-2-(((2R,7aS)-2-fluorotetrahydro-1H-pyrrolizin-7a(5H)-yl)methoxy)-5-methyl-4-(1,4-oxazepan-4-yl)pyrido[4,3-d]pyrimidin-7-yl) naphthalen-2-ol]

— patent US20250019377A1 (JACOBIO PHARMACEUTICALS CO., LTD, priority 2021, published 2025)
